Test results taken from US8399378B2, “Use of neonicotinoids in pest control” (Syngenta Crop Protection LLC, priority 1998, dated 2013).

Tests used:
Type in all cases: in vivo
Spodoptera littoralis = assay: Spray test on young cotton plants, action against Spodoptera littoralis larvae
Heliothis spp. = assay: Maize plot spray test (KnockOut vs conventional maize), action against Heliothis spp.; settings: 6 days
Procedure: (§1) A plot (a) planted with maize cv. KnockOut® and an adjacent plot (b) of the same size which is planted with conventional maize, both showing natural infestation with Ostrinia nubilalis, Spodoptera spp. or Heliothis, are sprayed with an aqueous emulsion spray mixture comprising 200, 100, 50, 10, 5, 1 ppm of Ti-435. Immediately afterwards, plot (b) is treated with an emulsion spray mixture comprising 200, 100, 50, 10, 5, 1 ppm of the endotoxin expressed by KnockOut®. Evaluation takes place 6 days later. The percentage reduction in population (% action) is determined by comparing the number of dead pests on the plants of plot (a) with that on the plants of plot (b).
as §1, with “thiamethoxam.” for “Ti-435.”
as §1, with “imidacloprid.” for “Ti-435.”

Anthonomus grandis = assay: Spray test on young cotton plants, action against Anthonomus grandis adults; settings: non-transgenic cotton treated with compound and conventional CryIIIA-toxin, each 100, 50, 10, 5, 1 ppm
Nilaparvata lugens = assay: Rice plant spray test, action against Nilaparvata lugens; settings: 20° C, 21 days; for control (percentage reduction in population, % action): infected, then spray 400 ppm; for control level: plot (b) conventional rice plants, 400 ppm compound
Procedure: Rice plants on a plot (a) expressing the δ-endotoxin CryIA(b) and conventional rice plants on a plot (b) are infected with Nilaparvata lugens, subsequently sprayed with a spray mixture comprising 400 ppm thiamethoxam. Immediately afterwards, plot (b) is treated with an emulsion spray mixture comprising 400 ppm of the δ-endotoxin CryIA(b). The seedlings of plot (a) and (b) are then incubated at 20° C. The test is evaluated after 21 days.
(§2) The percentage reduction in population (% action) is determined by comparing the number of dead pests on the plants of plot (a) with that on the plants of plot (b).
Rice plants on a plot (a) expressing the δ-endotoxin CryIA(c) and conventional rice plants on a plot (b) are infected with Nilaparvata lugens, subsequently sprayed with a spray mixture comprising 400 ppm thiamethoxam. Immediately afterwards, plot (b) is treated with an emulsion spray mixture comprising 400 ppm of the δ-endotoxin CryIA(c). The seedlings of plot (a) and (b) are then incubated at 20° C. The test is evaluated after 21 days.

Aphis gossypii = assay: Cotton seedling spray test, action against Aphis gossypii; settings: 20° C, 3 and 6 days; for control (percentage reduction in population, % action): spray 400 ppm; for control level: plot (b) conventional cotton seedlings, 400 ppm compound, then 400 ppm δ-endotoxin CryIIIa
Procedure: Cotton seedlings on a plot (a) expressing the δ-endotoxin CryIIIa on a plot (a) and conventional cotton seedlings on a plot (b) are infected with Aphis gossypi and subsequently sprayed with a spray mixture comprising 400 ppm thiamethoxam. Immediately afterwards, plot (b) is treated with an emulsion spray mixture comprising 400 ppm of the δ-endotoxin CryIIIa. The seedlings of plot (a) and (b) are then incubated at 20° C. The test is evaluated after 3 and 6 days.
as §2
Cotton seedlings expressing the δ-endotoxin CryIA(c) on a plot (a) and conventional cotton seedlings on a plot (b) are infected with Aphis gossypii and subsequently sprayed with a spray mixture comprising 400 ppm thiamethoxam. Immediately afterwards, plot (b) is treated with an emulsion spray mixture comprising 400 ppm of the δ-endotoxin CryIIIa. The seedlings of plot (a) and (b) are then incubated at 20° C. The test is evaluated after 3 and 6 days.

CN1COCN(Cc2cnc(Cl)s2)/C1=N\[N+](=O)[O-] [thiamethoxam, 5-(2-Chlorthiazol-5-ylmethyl)-3-methyl-4-nitroimino-perhydro-1,3,5-oxadiazin]
control of the tested insects (percentage reduction in population or feeding damage, % action) (Spodoptera littoralis; non-transgenic cotton treated with compound and conventional CryIIIA-toxin, each 100, 50, 10, 5, 1 ppm, comparison arm for CryIIIA cotton): insufficient | control of the tested insects (percentage reduction in population or feeding damage, % action) (Spodoptera littoralis; transgenic cotton expressing δ-endotoxin CryIIIA, spray 100, 50, 10, 5, 1 ppm, evaluation 3 to 10 days, compared with non-transgenic plant): superior | control (percentage reduction in population, % action) (Heliothis spp.; plot (a) maize cv. KnockOut, spray 200, 100, 50, 10, 5, 1 ppm, natural infestation): Improved control | control level (Heliothis spp.; plot (b) conventional maize, compound 200, 100, 50, 10, 5, 1 ppm, then same ppm of the endotoxin expressed by KnockOut): ≤ 60% | control of the tested insects (percentage reduction in population or feeding damage, % action) (Anthonomus grandis; comparison arm for CryIIIA cotton): insufficient | control of the tested insects (percentage reduction in population or feeding damage, % action) (Anthonomus grandis; comparison arm for CryIa(c) cotton): insufficient | control (percentage reduction in population, % action) (Nilaparvata lugens; plot (a) rice plants expressing δ-endotoxin CryIA(b)): Improved control | control (percentage reduction in population, % action) (Nilaparvata lugens; plot (a) rice plants expressing δ-endotoxin CryIA(c)): Improved control | control level (Nilaparvata lugens; then 400 ppm δ-endotoxin CryIA(b)): ≤ 60% | control level (Nilaparvata lugens; then 400 ppm δ-endotoxin CryIA(c)): ≤ 0% | control (percentage reduction in population, % action) (Aphis gossypii; plot (a) cotton seedlings expressing δ-endotoxin CryIIIa): Improved control | control (percentage reduction in population, % action) (Aphis gossypii; plot (a) cotton seedlings expressing δ-endotoxin CryIa(c)): Improved control | control level (Aphis gossypii): ≤ 60% | control level (Aphis gossypii; comparison arm for CryIA(c) cotton): ≤ 60%
